Our source for the inhibition values is ChEMBL document CHEMBL4393695, “Thiazole orange - Spermine conjugate: A potent human telomerase inhibitor comparable to BRACO-19” (Eur J Med Chem, 2019).

Active and inactive are the calls of the source. The calls are words filed in the database; no cut-off is given here.

Assay type in all cases: subcellular
In assay [1] the target is Telomerase reverse transcriptase (Homo sapiens) (UniProt O14746). As to the kind of experiment: Inhibition of telomerase activity in human HeLa cell lysate at 10 uM in presence of [32P]-labeled template primer by TRAP assay.
Assay [2] relates to HeLa. Nature of the assay: Inhibition of DNA polymerase activity in human HeLa cell lysate at 10 uM in presence of [32P]-labeled template primer by TRAP assay.
Assay [3] deals with Telomerase reverse transcriptase (Homo sapiens) (UniProt O14746). Nature of the assay: Inhibition of telomerase activity in human HeLa cell lysate at <=2.5 uM in presence of [32P]-labeled template primer by TRAP assay.
Assay [4] deals with HeLa. As to the kind of experiment: Inhibition of DNA polymerase activity in human HeLa cell lysate at <=2.5 uM in presence of [32P]-labeled template primer by TRAP assay.
Assay [5] addresses Telomerase reverse transcriptase (Homo sapiens) (UniProt O14746). Nature of the assay: Inhibition of telomerase activity in human HeLa cell lysate at 0.039 to 10 uM in presence of [32P]-labeled template primer by TRAP assay.

Telomerase reverse transcriptase (Homo sapiens), sequence (O14746 whole entry): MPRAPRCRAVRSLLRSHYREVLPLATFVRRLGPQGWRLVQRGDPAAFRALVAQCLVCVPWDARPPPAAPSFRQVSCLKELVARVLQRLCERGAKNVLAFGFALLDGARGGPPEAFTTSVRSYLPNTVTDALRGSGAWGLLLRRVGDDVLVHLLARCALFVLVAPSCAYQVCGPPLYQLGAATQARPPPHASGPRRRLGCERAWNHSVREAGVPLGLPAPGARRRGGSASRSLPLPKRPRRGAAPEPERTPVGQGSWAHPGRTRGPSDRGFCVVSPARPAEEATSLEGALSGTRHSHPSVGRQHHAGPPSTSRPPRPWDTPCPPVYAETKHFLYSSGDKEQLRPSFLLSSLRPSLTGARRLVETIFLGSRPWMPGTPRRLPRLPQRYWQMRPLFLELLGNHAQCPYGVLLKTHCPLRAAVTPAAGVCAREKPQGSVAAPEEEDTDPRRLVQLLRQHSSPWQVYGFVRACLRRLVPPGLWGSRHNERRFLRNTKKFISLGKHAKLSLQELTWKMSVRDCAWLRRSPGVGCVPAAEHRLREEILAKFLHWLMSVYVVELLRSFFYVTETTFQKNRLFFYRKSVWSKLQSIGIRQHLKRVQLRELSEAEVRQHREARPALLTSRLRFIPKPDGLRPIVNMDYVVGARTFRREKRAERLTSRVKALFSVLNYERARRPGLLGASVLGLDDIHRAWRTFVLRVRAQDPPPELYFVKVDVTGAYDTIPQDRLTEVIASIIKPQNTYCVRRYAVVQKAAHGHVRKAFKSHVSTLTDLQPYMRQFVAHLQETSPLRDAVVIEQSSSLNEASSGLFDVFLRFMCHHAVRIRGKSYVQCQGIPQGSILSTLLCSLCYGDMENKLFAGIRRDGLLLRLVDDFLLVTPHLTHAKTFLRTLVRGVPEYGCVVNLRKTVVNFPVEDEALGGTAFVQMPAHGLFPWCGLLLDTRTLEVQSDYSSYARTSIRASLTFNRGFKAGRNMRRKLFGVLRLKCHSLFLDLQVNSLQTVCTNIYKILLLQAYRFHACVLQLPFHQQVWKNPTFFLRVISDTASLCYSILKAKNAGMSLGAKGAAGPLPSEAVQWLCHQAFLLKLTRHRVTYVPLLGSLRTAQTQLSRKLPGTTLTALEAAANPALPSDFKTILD

Consider `CN(C)c1ccc(Nc2c3ccc(NC(=O)CCN4CCCC4)cc3nc3cc(NC(=O)CCN4CCCC4)ccc23)cc1`, for which the inhibition entry (in assay [1]; in the assay on HeLa [2]; in assay [3]; in assay [5]) was “Active” throughout. The inhibition result with HeLa [4] was “inactive”.
